From patent US20250064789A1, “KETOAMIDE DERIVATIVES AND PHARMACEUTICAL USES THEREOF” (priority 2022, published 2025)

Columns and labels:
[1] = target: recombinant SARS-CoV-2 M^pro (Severe acute respiratory syndrome coronavirus 2 (2019-nCoV) (SARS-CoV-2), UniProt P0DTD1); assay: Inhibition of SARS-CoV-2 M^pro enzyme activity (fluorescent substrate assay); format: biochemical; settings: inhibition of SARS-CoV-2 M^pro enzyme activity; values in nM; read-out: IC50
Vero E6 cells = assay: Cytotoxic assay against Vero E6 cells (MTT, 72 h); format: cell-based
Protocol: The cytotoxicity assessment of compounds was performed against Vero E6 cells. The specific experimental procedures: Vero E6 cells were seeded into a 96-well plate at a cell density of 2×10^4 cells/well, with 100 μL/well, and then incubated overnight at 37° C. in a 5% CO2 incubator. The next day, 100 μL of drug-containing medium was added to each well. The compound was diluted in a 2-fold serial dilution with a top concentration of […], for a total of 6 gradients. Three repeated wells were set for each concentration, and negative controls and blank controls without drugs were included for each experiment. […] All experimental data were analyzed using GraphPad Prism software.

[2] = tested on: BEAS-2B cells (normal human bronchial epithelial cells); assay: Cytotoxic assay against human BEAS-2B cells (MTT, 72 h); format: cell-based
Protocol: (§1) BEAS-2B cells (normal human bronchial epithelial cells) and HUVEC cells (human umbilical vein endothelial cells) were used to evaluate the cytotoxicity of compounds against human-derived cells. The detailed experimental procedures: BEAS-2B cells or HUVEC cells were seeded into a 96-well plate at a cell density of 2×10^4 cells/well, that is, 100 µL/well, and then incubated overnight at 37° C. in a 5% CO2 incubator. The next day, 100 μL of drug-containing medium was added to each well. The compound was diluted in a 2-fold serial dilution with a top concentration of […], for a total of 6 gradients. Three repeated wells were set for each concentration, and negative controls and blank controls without drugs were included for each experiment. […] All experimental data were analyzed using GraphPad Prism software.

[3] = tested on: HUVEC cells (human umbilical vein endothelial cells); assay: Cytotoxic assay against HUVEC cells (MTT, 72 h); format: cell-based
Protocol: as §1

human thrombin = human thrombin (Homo sapiens (Human), UniProt P00734); assay: Human protease biochemical activity assay: Thrombin activity testing kit; settings: read-out: Thrombin IC50
Protocol: (§2) The biochemical activity of compounds against human proteases was determined using Cathepsin K inhibitor screening kit (K150-100), Cathepsin B inhibitor screening kit (K147-100), Thrombin activity testing kit (K373-100), Caspase-2 inhibitor screening kit (K152-100), and Cathepsin D inhibitor screening kit (K148-100) according to the instructions of the kits (Biovision, USA). All experiments were carried out in triplicate. All experimental data were analyzed using GraphPad Prism software.

human cathepsin K = human cathepsin K (Homo sapiens (Human), UniProt P43235); assay: Human protease biochemical activity assay: Cathepsin K inhibitor screening kit; settings: read-out: Cathepsin K IC50
Protocol: as §2

human cathepsin B = human cathepsin B (Homo sapiens (Human), UniProt P07858); assay: Human protease biochemical activity assay: Cathepsin B inhibitor screening kit
Protocol: as §2

human caspase 2 = human caspase 2 (Homo sapiens (Human), UniProt P42575); assay: Human protease biochemical activity assay: Caspase-2 inhibitor screening kit; settings: read-out: Caspase-2 IC50
Protocol: as §2

human cathepsin D = human cathepsin D (Homo sapiens (Human), UniProt P07339); assay: Human protease biochemical activity assay: Cathepsin D inhibitor screening kit
Protocol: as §2

[4] = male, Sprague-Dawley, rat, in vivo, iv, 1 mg/kg
in vivo = settings: male, Sprague-Dawley, rat
[5] = In vivo pharmacokinetic properties in rats; settings: SD rats
[6] = Metabolic stability using human liver microsomes; format: in vitro ADME; settings: NADPH, 37° C.
[7] = target: hERG potassium ion channels (Homo sapiens (Human), UniProt Q12809); assay: hERG potassium current, whole cell patch clamp in HEK-293-hERG cells; settings: 0.1 μM
Chain of hERG potassium ion channels (Q12809 whole entry, looked up): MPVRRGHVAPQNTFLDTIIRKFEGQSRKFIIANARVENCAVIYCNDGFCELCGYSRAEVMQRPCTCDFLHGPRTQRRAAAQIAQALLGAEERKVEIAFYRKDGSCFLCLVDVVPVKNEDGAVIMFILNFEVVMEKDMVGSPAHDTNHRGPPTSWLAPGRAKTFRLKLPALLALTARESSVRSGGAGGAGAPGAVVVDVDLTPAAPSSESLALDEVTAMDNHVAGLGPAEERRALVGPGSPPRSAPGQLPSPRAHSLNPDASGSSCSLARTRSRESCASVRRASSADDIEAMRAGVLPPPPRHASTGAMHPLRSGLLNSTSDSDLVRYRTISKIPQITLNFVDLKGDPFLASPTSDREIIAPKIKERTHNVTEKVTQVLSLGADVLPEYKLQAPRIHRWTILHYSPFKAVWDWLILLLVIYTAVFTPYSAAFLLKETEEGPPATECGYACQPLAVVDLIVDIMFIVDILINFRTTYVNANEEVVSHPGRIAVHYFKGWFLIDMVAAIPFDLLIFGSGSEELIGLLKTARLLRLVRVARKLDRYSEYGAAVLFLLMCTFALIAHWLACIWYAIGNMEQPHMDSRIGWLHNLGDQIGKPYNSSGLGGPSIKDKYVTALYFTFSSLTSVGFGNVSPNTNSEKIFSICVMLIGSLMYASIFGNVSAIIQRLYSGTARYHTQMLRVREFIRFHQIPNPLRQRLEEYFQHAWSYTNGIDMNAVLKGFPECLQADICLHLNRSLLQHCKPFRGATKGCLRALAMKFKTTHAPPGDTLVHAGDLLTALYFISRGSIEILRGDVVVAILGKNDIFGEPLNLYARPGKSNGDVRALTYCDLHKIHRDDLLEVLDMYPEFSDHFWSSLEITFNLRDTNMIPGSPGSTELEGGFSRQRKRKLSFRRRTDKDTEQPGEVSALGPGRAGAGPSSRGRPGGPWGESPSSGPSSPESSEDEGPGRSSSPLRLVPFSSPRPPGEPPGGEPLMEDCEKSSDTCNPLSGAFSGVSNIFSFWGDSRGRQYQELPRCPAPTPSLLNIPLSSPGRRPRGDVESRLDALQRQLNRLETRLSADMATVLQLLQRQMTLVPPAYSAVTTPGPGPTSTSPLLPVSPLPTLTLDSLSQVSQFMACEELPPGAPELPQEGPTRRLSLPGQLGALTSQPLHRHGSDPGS

Chain of human cathepsin D (P07339 65-412): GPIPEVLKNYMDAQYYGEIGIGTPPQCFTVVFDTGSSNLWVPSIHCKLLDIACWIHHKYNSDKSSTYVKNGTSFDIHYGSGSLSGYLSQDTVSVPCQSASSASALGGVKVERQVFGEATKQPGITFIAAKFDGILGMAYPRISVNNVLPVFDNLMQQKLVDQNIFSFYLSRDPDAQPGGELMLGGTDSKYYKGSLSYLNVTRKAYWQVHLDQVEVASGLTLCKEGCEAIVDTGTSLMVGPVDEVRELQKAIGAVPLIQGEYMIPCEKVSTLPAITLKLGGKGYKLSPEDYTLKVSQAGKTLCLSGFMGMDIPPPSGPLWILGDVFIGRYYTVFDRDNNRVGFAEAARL
Chain of human caspase 2 (P42575 170-325): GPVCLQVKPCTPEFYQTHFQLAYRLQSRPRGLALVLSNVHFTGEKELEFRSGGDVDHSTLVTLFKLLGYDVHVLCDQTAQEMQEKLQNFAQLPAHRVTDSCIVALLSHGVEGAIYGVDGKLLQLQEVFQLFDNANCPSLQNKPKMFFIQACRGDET
Chain of human caspase 2 (P42575 348-452): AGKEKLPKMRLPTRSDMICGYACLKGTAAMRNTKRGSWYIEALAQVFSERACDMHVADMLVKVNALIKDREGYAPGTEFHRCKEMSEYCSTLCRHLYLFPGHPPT
Chain of human cathepsin K (P43235 115-329): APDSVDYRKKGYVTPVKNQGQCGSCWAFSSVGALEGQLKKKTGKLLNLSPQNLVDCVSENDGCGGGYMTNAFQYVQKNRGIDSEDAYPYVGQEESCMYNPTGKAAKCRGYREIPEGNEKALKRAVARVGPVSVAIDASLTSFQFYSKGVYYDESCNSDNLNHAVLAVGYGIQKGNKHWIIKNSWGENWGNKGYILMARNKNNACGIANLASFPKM

Structure (SMILES) | IC50 [1] [nM] | CC50 (Vero E6 cells) [µM] | CC50 [2] [µM] | CC50 [3] [µM] | IC50 (human thrombin) [µM] | IC50 (human cathepsin K) [µM] | IC50 (human cathepsin B) [µM] | IC50 (human caspase 2) [µM] | IC50 (human cathepsin D) [µM] | Vssobs [4] [L/kg] | MRT inf (in vivo; iv, 1 mg/kg) [h] | Tmax (in vivo; iv, 1 mg/kg) [h] | MRT inf (in vivo; po, 10 mg/kg) [h] | AUCINF—obs ([5]; i.v. 1 mg/kg) [ng·h/mL] | AUClast ([5]; i.v. 1 mg/kg) [ng·h/mL] | Cmax ([5]; i.v. 1 mg/kg) [ng/mL] | AUCINF—obs ([5]; p.o. 10 mg/kg) [ng·h/mL] | AUClast ([5]; p.o. 10 mg/kg) [ng·h/mL] | Cmax ([5]; p.o. 10 mg/kg) [ng/mL] | T1/2 ([5]; p.o. 10 mg/kg) [h] | also measured
C[C@@H](NC(=O)CC1CC(F)(F)C1)C(=O)N[C@H](Cc1ccccc1)C(=O)C(=O)NCc1nccs1 [Compound 378] | 21.2 ± 0.3 | > 500 | > 500 | > 500 | > 100 | > 100 | > 100 | > 100 | > 100 | 3.65 ± 0.74 | 3.19 ± 0.31 | 0.08 | 6.57 ± 0.38 | 2254.80 ± 672.40 | 2196.61 ± 634.20 | 1568.34 ± 201.27 | 8696.48 ± 1124.53 | 8180.11 ± 795.05 | 734.80 ± 101.62 | 5.84 ± 1.30 | bioavailability (in vivo; po, 10 mg/kg): 7.95 ± 2.8%; CL ([5]; i.v. 1 mg/kg): 7.95 ± 2.80 mL/min/kg; T1/2 ([5]; i.v. 1 mg/kg): 5.47 ± 0.77 h; Tmax ([5]; p.o. 10 mg/kg): 1.33 ± 0.58 h
COC[C@@H](NC(=O)C1CCC(F)(F)CC1)C(=O)N[C@H](Cc1ccccc1)C(=O)C(=O)NCc1nccs1 [Compound 395] | 18.4 ± 1.3 | 132 | 159 | 129 | > 100 | > 100 | > 100 | > 100 | > 100 | 5.25 ± 2.13 | 3.55 ± 0.52 | 0.08 | 7.63 ± 0.57 | 2829.72 ± 958.55 | 2574.49 ± 819.96 | 1697.71 ± 237.45 | 13950.66 ± 782.95 | 12675.30 ± 1265.92 | 1006.49 ± 114.61 | 6.64 ± 1.17 | Human liver microsomes T1/2 [6]: 0.6498 h; Tmax (in vivo; po, 10 mg/kg): 4 h; CL ([5]; i.v. 1 mg/kg): 6.48 ± 2.63 mL/min/kg; T1/2 ([5]; i.v. 1 mg/kg): 9.49 ± 2.16 h; F % ([5]; p.o. 10 mg/kg): 49.23 ± 4.92%
C[C@@H](NC(=O)C1CCC(F)(F)CC1)C(=O)N[C@H](Cc1ccccc1)C(=O)C(=O)NCc1nccs1 [Compound 354] | – | > 500 | > 500 | > 500 | – | – | – | – | – | 1.31 ± 0.54 | 0.93 ± 0.18 | 0.08 | 4.89 ± 1.14 | 1020.76 ± 261.50 | 1011.17 ± 258.49 | 1105.29 ± 69.99 | 2844.61 ± 326.65 | 2567.31 ± 678.74 | 306.27 ± 32.12 | 3.01 ± 0.91 | Human liver microsomes T1/2 [6]: 0.5935 h; half-life (in vivo; iv, 1 mg/kg): 2.42 ± 2.24 h; F % ([5]; p.o. 10 mg/kg): 25.39 ± 6.71%; Tmax ([5]; p.o. 10 mg/kg): 2.67 ± 1.15 h
COc1cc(N)c(Cl)cc1C(=O)NC1CCN(CCCOc2ccc(F)cc2)CC1OC (stereo not shown) [Cisapride, reference compound] | – | – | – | – | – | – | – | – | – | – | – | – | – | – | – | – | – | – | – | – | The average tail current after administration [7]: 128.04 pA
COC[C@@H](NC(=O)CC1CC(F)(F)C1)C(=O)N[C@H](Cc1ccccc1)C(=O)C(=O)NCc1nccs1 [Compound 400] | 10.2 ± 0.1 | > 500 | > 500 | > 500 | > 100 | > 100 | > 100 | > 100 | > 100 | 3.28 ± 1.17 | 3.18 ± 0.52 | 0.08 | 6.47 ± 0.5 | 2394.12 ± 644.94 | 2357.97 ± 638.69 | 1352.62 ± 116.10 | 11166.54 ± 364.00 | 10791.37 ± 123.59 | 805.87 ± 75.43 | 4.67 ± 1.04 | Human liver microsomes T1/2 [6]: 0.5067 h; Tmax (in vivo; po, 10 mg/kg): 2 h; CL ([5]; i.v. 1 mg/kg): 7.30 ± 1.90 mL/min/kg; T1/2 ([5]; i.v. 1 mg/kg): 5.09 ± 0.57 h; F % ([5]; p.o. 10 mg/kg): 45.77 ± 0.52%
C[C@@H](NC(=O)C1CCC(F)(F)C1)C(=O)N[C@H](Cc1ccccc1)C(=O)C(=O)NCc1nccs1 (stereo partly shown) [Compound 379] | 22.5 ± 0.7 | > 500 | > 500 | > 500 | > 100 | > 100 | > 100 | > 100 | > 100 | 2.49 ± 1.61 | 1.26 ± 0.42 | 0.08 | 5.9 ± 0.79 | 1329.00 ± 555.62 | 1292.28 ± 530.92 | 1317.59 ± 168.03 | 6903.48 ± 2619.87 | 6721.57 ± 2461.95 | 634.54 ± 161.39 | 4.15 ± 1.48 | Human liver microsomes T1/2 [6]: 0.7035 h; CL ([5]; i.v. 1 mg/kg): 14.52 ± 7.25 mL/min/kg; T1/2 ([5]; i.v. 1 mg/kg): 1.90 ± 0.27 h; F % ([5]; p.o. 10 mg/kg): 52.01 ± 19.05%; Tmax ([5]; p.o. 10 mg/kg): 1.67 ± 0.58 h
